# Where a SMILES comes first, the peptide text is derived from it. [ ]: non-standard residue; d: D form. The star is where a group is joined. ξ: configuration not given here. FITC = O=C1OC2(c3ccc(O)cc3Oc3cc(O)ccc32)c2ccc(NC(=S)*)cc21; Phe(4-NO2) = N[C@@H](Cc1ccc([N+](=O)[O-])cc1)C(=O)O; ξAla(4-thiazolyl) = NC(Cc1cscn1)C(=O)O; pS = N[C@@H](COP(=O)(O)O)C(=O)O; β3hS = N[C@@H](CO)CC(=O)O; Nva = CCC[C@H](N)C(=O)O; ξβ3hS = NC(CO)CC(=O)O; βAla = NCCC(=O)O
# How the values were obtained:
# 14-3-3γ/ChREBP = target: T1, 14-3-3γ/ChREBP (Homo sapiens, UniProt P61981+Q9NP71); assay: 2D FA titration of 14-3-3/ChREBP and cooperativity analysis with thermodynamic equilibrium model; assay type: binding; settings: 14-3-3γ/ChREBP/2d ternary complex; 2D FA titration (20 nM FITC-2d, 0.01–10 μM ChREBP) fitted to thermodynamic equilibrium model; n = 2
# T1 construct: made in house; host or cells: E. coli NiCo21 (DE3) for 14-3-3 gamma; ChREBP is a synthetic peptide
# T1 sequence (P61981 1-247): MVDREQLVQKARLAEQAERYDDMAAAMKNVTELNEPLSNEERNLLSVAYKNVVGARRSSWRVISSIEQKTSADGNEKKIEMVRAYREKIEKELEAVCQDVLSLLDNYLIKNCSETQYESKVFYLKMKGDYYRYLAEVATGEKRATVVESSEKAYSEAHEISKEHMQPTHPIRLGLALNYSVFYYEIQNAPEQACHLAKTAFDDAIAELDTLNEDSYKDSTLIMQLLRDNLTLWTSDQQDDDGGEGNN
# T1 sequence (Q9NP71 118-142 partner limits assumed): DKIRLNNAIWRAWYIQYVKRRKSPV
# Procedure: (§1) a four-parameter logistic model (4PL). Each measurement was performed in two independent […]
# (§2) Fluorescence anisotropy (FA) - 2D-14-3-3/ChREBP titrations: 14-3-3γ was titrated in a 2-fold dilution series (starting at 300 µM 14-3-3γ) to 20 nM of fluorescein-labeled peptide 2d in FA buffer (10 mM HEPES pH 7.4, 150 mM NaCl, 0.1% (v/v) Tween20, 0.1% (w/v) BSA) in presence of 2-fold dilution series of unlabeled ChREBP peptide (0.01-10 µM). Dilution series were made in a polystyrene (non-binding) low-volume Corning Black Round Bottom 384-well plates (Corning 4514 or 4511). Measurements were performed directly after plate preparation, using a Tecan Infinite F500 plate reader at room temperature (lex: 485 ± 20 nm; lem: 535 ± 25 nm; mirror: Dichroic 510; flashes: 20; integration time: 50 ms; settle time:
# (§3) 0 ms; gain: optimal; and Z-position: calculated from well). Wells containing only FITC-peptide were used to set as G-factor at 35 mP. All data were analyzed using GraphPad Prism (7.00) for Windows and fitted using a four-parameter logistic model (4PL). […]
# (§4) with R = 14-3-3, P = non-natural peptide (labelled), and C = ChREBP. The framework determined based on this system description the equilibrium equations needed to determine KDII and α. […] From this the model determined the KDII and α (with 95% confidence interval) and the error-landscape of the determine parameters. […]
# [1] = system: 14-3-3γ with partner peptides (ChREBP, ERα, SOS1, B-Raf, ERRγ, USP8, PIN1, p65); assay: FA selectivity study: 14-3-3 partner peptides titrated to preformed 14-3-3γ/FITC-2d complex; assay type: binding, human; settings: partner peptides titrated (from 100 μM) to 2 μM 14-3-3γ and 20 nM FITC-2d; n = 2
# Procedure: as §1, §2, §3, §4
# 14-3-3 = settings: hits of a 10^8-membered synthetic non-canonical phosphopeptide library; read-out: affinity for 14-3-3; cited from earlier work
# Source text: We selected peptide 14-3-3.12, herein termed peptide 1, from the top hits for functional mapping. […] Further, the peptide completely occupies the 14-3-3 binding groove, thus allowing to explore both sides flanking 14-3-3's central phospho-accommodating pocket.
Structure (SMILES),cooperativity factor α (14-3-3γ/ChREBP),selectivity of ternary complex formation over a panel of 14-3-3 partner peptides [1],Kd (14-3-3)
C[C@H](NC(=O)[C@H](CCCCN)NC(=O)[C@H](Cc1ccc([N+](=O)[O-])cc1)NC(=O)CCNC(=O)C[C@H](CO)NC(=O)[C@H](Cc1ccc([N+](=O)[O-])cc1)NC(=O)[C@@H](N)COP(=O)(O)O)C(=O)N[C@@H](CCCCNC(=S)Nc1ccc2c(c1)C(=O)OC21c2ccc(O)cc2Oc2cc(O)ccc21)C(N)=O [2d] (H-[pS][Phe(4-NO2)][β3hS][βAla][Phe(4-NO2)]KAK(FITC)-NH2),36,highly selective ternary complex formation,
CCC[C@H](NC(=O)[C@H](N)CCCCN)C(=O)N[C@@H](Cc1ccc([N+](=O)[O-])cc1)C(=O)NC(Cc1cscn1)C(=O)N[C@@H](COP(=O)(O)O)C(=O)N[C@@H](Cc1ccc([N+](=O)[O-])cc1)C(=O)NC(CO)CC(=O)NCCC(=O)N[C@@H](Cc1ccc([N+](=O)[O-])cc1)C(=O)N[C@@H](CCCCN)C(N)=O (stereo partly drawn) [compound 1] (H-[dK][Nva][Phe(4-NO2)][ξAla(4-thiazolyl)][pS][Phe(4-NO2)][ξβ3hS][βAla][Phe(4-NO2)]K-NH2),,,19 nM

# Source: article PMC9667936, “Functional mapping of the 14-3-3 hub protein as a guide to design 14-3-3 molecular glues” (Chemical Science, 2022)
